{"source": "patent US7557085B2", "about": "“Metabolic-based methods for modulating gene expression” (Wisconsin Alumni Research Foundation, priority 2005, dated 2009)", "key": {"[1]": {"system": "actin (not an NRSF target)", "experiment": "QRT-PCR of actin in JTC-19 cells", "format": "cell-based, rat", "details": "1 mM 2-DG for 24 hrs", "text": "FIG. 5 are graphs showing the results of quantitative reverse-transcriptase-PCR experiments, wherein NaV1.2 is sodium type II (NaV1.2); BDNF is Brain Derived Neurotrophic Factor (BDNF) and CHRM4 is muscarinic acetylcholine receptor type 4 (CHRM4), all genes repressed by NRSE/NRSF, and actin (not an NRSF target).\nFirefly luciferase measurements were normalized to co-transfected pRL-TK and expressed as fold repression (gal4 DBD/gal4-NRSF). Values are the average of at least three experiments performed in triplicate. Error bars indicate standard errors. […] In these experiments, cells were grown in the presence or absence of 1 mM 2-DG for 24 hrs, harvested and RNA subjected to QRT-PCR with primers to the NRSF target genes Sodium Type II (NaV1.2), Brain Derived Neurotrophic Factor (BDNF) and Muscarinic Acetylcholine Receptor Type 4 (CHRM4) or actin (not an NRSF target). Rat hippocampal cDNA was used to generate a standard curve and values plotted are microliter equivalents of hippocampal cDNA."}, "[2]": {"system": "NRSF binding site (NSRE) from the mouse homolog of the human snail promoter", "experiment": "SV40 luciferase reporter with snail promoter NRSE in HEK 293 cells", "format": "cell-based", "details": "HEK 293 cells grown overnight in the presence of glucose", "text": "FIG. 12 is a graph showing repression of expression of a reporter gene using an SV40 promoter with or without the NRSF binding site from the human snail promoter. HG=glucose; Pyr=pyruvate; 2-DG=2-deoxyglucose.\nTo investigate whether the effects of 2-DG on gene expression is evidenced in genes known to be involved in metastatic growth, the NRSF binding site (NSRE) from the mouse homolog of the human snail promoter (GenBank Accession No. NM_005985), comprising a 440 bp nucleotide sequence\nidentified as SEQ ID NO. 6 was introduced into the SV40 promoter in the plasmid vector pGL3 (available from Promega, Madison, Wis.) at the BglII and Acc65I restriction enzyme recognition sites). In pGL3. a luciferase reporter gene is under the transcriptional control of the SV40 promoter, and in the construct described herein transcription from the SV40 promoter is regulated by NRSE/NRSF. Reporter plasmids with and without the NSRE insert were transfected into HEK 293 cells (ATCC Accession No. CRL 1573 ATCC, Manassas, Va.) and the cells grown overnight in the presence of glucose with and without pyruvate, 2-DG or both pyruvate and 2DG. […]"}, "NRSF mediated repression": {"system": "NRSF mediated repression", "experiment": "gal4-NRSF luciferase reporter (G5-TATA-Luc) in JTC-19 cells", "format": "cell-based, rat", "details": "JTC-19 cells"}, "CHRM4": {"system": "CHRM4", "experiment": "QRT-PCR of CHRM4 in CtBP1/CtBP2 mutant Mouse Embryonic Fibroblasts", "format": "cell-based", "details": "1 mM 2-DG", "description": "FIG. 7C is a graph of normalized CHRM4 expression in MEFs bearing an inactivating mutation in heterozygous (−/+) or homozygous (−/−) state for both CtBP1 and CtBP2, assayed in the presence of absence of 2-DG.\nTo test whether CtBP was required for NRSF repression of chromosomal genes, expression levels of NRSF target genes were assayed in Mouse Embryonic Fibroblasts (MEFs) heterozygous or homozygous for deletions of both CtBP1 and CtBP2 (as described in Hildebrand & Soriano, 2002, Mol Cell Biol 22: 5296-307). In these experiments, wild type MEFs or MEFs heterozygous (CtBP1^−/+2^−/+) or homozygous (CtBP1^−/−2^−/−) for both CtBP1 and CtBP2 mutants were analyzed for CHRM4, Myelin Basic Protein (MBP) and hypoxanthine phosphoribosyl transferase (HPRT, as a non-NRSF regulated control) expression by QRT-PCR as described in Example 2. […] The expression levels of both genes were further elevated in CtBP1^−/−/2^−/− cells, consistent with a dose-responsive co-repressor function for CtBP."}, "[3]": {"system": "seizures evoked by kindling", "experiment": "kindling model of epilepsy, afterdischarge (AD) threshold", "format": "in vivo, Sprague Dawley rats", "design": "change of AD threshold / duration of anticonvulsant effects after stopping 2-DG: dose or concentration left out as unconfirmed", "description": "FIG. 2 illustrates the effects on after-discharge threshold of 2-DG in a […] model of epilepsy.\n2-deoxy-D-glucose (2-DG), a potent inhibitor of glycolysis, was administered to rats experiencing epileptic seizures evoked by kindling, which induces seizures and long-term alterations in pathways of the hippocampal formation resembling human temporal lobe epilepsy. The effects of 2-DG on seizures evoked by kindling were examined in Sprague Dawley rats that received 2-DG and were compared to a saline-injected control group. Both groups initially received twice daily kindling stimulation (1 sec trains of 1 ms bipolar constant current pulses at 60 Hz) delivered to the perforant path input to the hippocampus according to established procedures, until 3 afterdischarges (ADs) accompanied by behavioral seizures were evoked. […]\nDosage amount and interval of administration of compounds of the present invention can be adjusted individually to reduce seizure frequency, duration or intensity. For example, doses of 250 mg/kg 2-DG or less to higher as tolerated can be used to reduce seizure frequency and minimize toxicity. Doses of as much as 2000 mg/kg 2-DG are well tolerated in rats. […] A practitioner skilled in the art can adjust dosage in the range up to 500-600 mg/kg 2-DG and the timing of administration to produce prolonged anticonvulsant and antiepileptic effects. Efficacious dosage amounts can be adjusted to about 14 mg/kg 2-DG in children and 40 mg/kg 2-DG in adults, using therapeutic efficacy measurements (e.g., reduction in frequency or severity of seizures) as a criterion for establishing effective dosage levels."}, "BDNF": {"system": "BDNF", "experiment": "QRT-PCR of hippocampal tissue from kindled rats, BDNF", "format": "in vivo, rat", "text": "Values plotted are BDNF or TrkB expression over Actin using rat hippocampal cDNA from an untreated rat for a standard curve. Specifically, mRNA was extracted from hippocampus tissue from rats treated with 2-DG or untreated control rats subjected to kindling stimulation to mimic epilepsy. […] The levels of actin mRNA were not affected by 2-DG treatment. Importantly, the differences in expression of BDNF or TrkB in the absence or presence of 2DG were present after 5 ADs in association with a large difference in AD threshold between 2DG-treated and control rats (FIG. 3 lanes 5 versus 6 and 7 versus 8)."}}, "data": [{"smiles": "O=CC[C@@H](O)[C@H](O)[C@H](O)CO", "note": "[2-DG, 2-deoxy-D-glucose]", "values": [{"measurement": "actin levels", "setting": "[1]", "value": "unaffected"}, {"measurement": "reporter gene expression (ratio of SV40-driven to NRSE/SV40 luciferase expression)", "setting": "[2]", "value": "decreased"}, {"measurement": "repression by NRSF of luciferase reporter", "setting": "NRSF mediated repression; 2-DG added to pyruvate and glucose", "value": "augmented this effect"}, {"measurement": "repression of luciferase reporter gene expression by NRSF (fold repression gal4 DBD/gal4-NRSF)", "setting": "NRSF mediated repression; 16 hrs", "value": "increased repression"}, {"measurement": "repression by NRSF of luciferase reporter", "setting": "NRSF mediated repression; in the absence of glucose", "value": "unable to further augment repression"}, {"measurement": "repression by NRSF of luciferase reporter", "setting": "NRSF mediated repression; in the presence of glucose", "value": "increased repression"}, {"measurement": "CHRM4 expression", "setting": "CHRM4; CtBP1-/+/2-/+ cells", "value": "repressed"}, {"measurement": "CHRM4 expression", "setting": "CHRM4; CtBP1-/-/2-/- cells", "value": "not altered"}, {"measurement": "AD threshold reached with repeated stimulations", "setting": "[3]; rats, 2-DG 200 mg/kg subcutaneously 30 minutes prior to each kindling stimulation, maximum intensity of the stimulation protocol", "value": 1500, "unit": "μramps"}, {"measurement": "change of AD threshold", "setting": "[3]; subcutaneous prior to each kindling stimulation that evoked AD, saline control showed a decrease", "value": "gradual increase"}, {"measurement": "duration of anticonvulsant effects after stopping 2-DG", "setting": "[3]; twice daily for 3 months, twice daily stimulation continued", "value": "approximately 8 weeks"}, {"measurement": "hippocampal BDNF expression compared to control animals", "setting": "BDNF; QRT-PCR, expression over actin, FIG. 3 lanes 1 versus 2", "value": "significantly reduced"}, {"measurement": "difference in expression of BDNF in absence or presence of 2DG", "setting": "BDNF; after 5 ADs", "value": "present"}, {"measurement": "BDNF expression, 2DG-treated versus control rats", "setting": "BDNF; rats that experienced 3 Class V seizures", "value": "no difference in expression"}]}]}
